Measured values from US11976083B2, “Inhibitors of peptidylarginine deiminases” (Gilead Sciences, Inc., priority 2020, dated 2024).

Target: T1, human PAD4 (Homo sapiens, UniProt Q9UM07)
T1 construct: human PAD4 (NM_012387), A2-P663, was PCR amplified; His-SUMO (N, cleaved yes); made in house; host or cells: E. coli BL21(DE3)
Test: In vitro PAD4 BAEE biochemical assay
Conditions: BAEE substrate 3 mM, 5 nM PAD4, 2 mM calcium chloride; geometric mean of multiple experiments
How it was run: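 Assay was run at 25 °C using 3 mM BAEE and 5 nM human PAD4 after a 30 min compound preincubation; ammonia produced over 2 h was quantified by OPA-derived fluorescence. Full inhibition was defined by 50 µM BB-Cl-Amidine, and IC50 came from variable-slope nonlinear regression.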

T1 sequence (Q9UM07 2-663): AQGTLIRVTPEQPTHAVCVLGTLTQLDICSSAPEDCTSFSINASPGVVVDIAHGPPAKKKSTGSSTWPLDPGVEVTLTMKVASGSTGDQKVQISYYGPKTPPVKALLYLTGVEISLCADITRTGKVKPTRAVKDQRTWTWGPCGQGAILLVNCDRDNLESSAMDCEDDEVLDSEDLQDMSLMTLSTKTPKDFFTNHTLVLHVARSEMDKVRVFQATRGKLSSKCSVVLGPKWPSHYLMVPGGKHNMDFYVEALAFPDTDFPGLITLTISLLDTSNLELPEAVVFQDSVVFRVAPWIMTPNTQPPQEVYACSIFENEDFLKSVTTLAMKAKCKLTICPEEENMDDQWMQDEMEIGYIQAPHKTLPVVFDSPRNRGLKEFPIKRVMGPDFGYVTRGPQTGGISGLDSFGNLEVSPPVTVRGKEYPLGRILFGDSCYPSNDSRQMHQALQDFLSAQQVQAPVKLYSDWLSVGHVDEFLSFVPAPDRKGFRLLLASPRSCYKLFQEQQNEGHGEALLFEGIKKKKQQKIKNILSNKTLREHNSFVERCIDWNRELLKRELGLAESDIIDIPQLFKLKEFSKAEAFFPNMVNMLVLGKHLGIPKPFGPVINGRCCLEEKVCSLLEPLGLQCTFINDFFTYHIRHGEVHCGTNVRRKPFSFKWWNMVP

Point of comparison: `CO[C@@H]1CCN(C(=O)c2cc(F)c3c(c2)nc(-c2cc4ccc5nc4n2CC(F)(F)CCC[C@@H]2C[C@H]2C(=O)N[C@@H]5C)n3[C@H]2C[C@@H]2F)C[C@@H]1N` [Example 834, (2~{R},5~{R},7~{R})-14-[5-[(3~{S),4~{R})-3-amino-4-methoxy-piperidine-1-carbonyl]-7-fluoro-1-[(1~{S},2~{S})-2-fluorocyclopropyl]benzimidazol-2-yl]-11,11-difluoro-2-methyl-3,13,19-triazatetracyclo [11.5.2.0^{5,7}.0^{16,20}] icosa-1(19),14,16(20), 17-tetraen-4-one], IC50 126 nM. Against it:
- C[C@@H]1[C@H](N)CCCN1C(=O)c1cc(F)c2c(c1)nc(-c1cc3ccc4nc3n1CCCCCc1nc3ccccc3cc1C(=O)N[C@@H]4C)n2C1CC1 [Example 830, (2~{R})-21-[5-[(2~{R}, 3~{R})-3-amino-2-methyl-piperidine-1-carbonyl]-1-cyclopropyl-7-fluoro-benzimidazol-2-yl]-2-methyl-3,13,20,26-tetrazapentacyclo[18.5.2.0^ {5,14}.0^{7,12}.0^ {23,27}]heptacosa-1(26),5(14),6,8,10,12,21, 23(27),24-nonaen-4-one] — 6.6-fold lower, 19 nM
- COc1cc(C(=O)N2CC[C@@H](OC)[C@@H](N)C2)cc2nc(-c3cc4ccc5nc4n3CCCCCc3nccc(Cl)c3C(=O)N[C@@H]5C)n(C)c12 [Example 831, (2~{R})-17-[5-[(3~{S}, 4~{R})-3-amino-4-methoxy-piperidine-1-carbonyl]-7-methoxy-1-methyl-benzimidazol-2-yl]-6-chloro-2-methyl-3,9,16,22-tetrazatetracyclo [14.5.2.0^{5,10}.0^{19,23}] tricosa-1(22),5(10),6,8, 17,19(23),20-heptaen-4-one] — 1.7-fold lower, 75 nM
- C[C@@H]1c2ccc3cc(-c4nc5cc(C(=O)N6CCC[C@@H](N)[C@H]6C)cc(F)c5n4C4CC4)n(c3n2)CCCCCc2nc3ccccc3cc2C(=O)N1C [Example 832, (2~{R})-21-[5-[(2~{R},3~{R})-3-amino-2-methyl-piperidine-1-carbonyl]-1-cyclopropyl-7-fluoro-benzimidazol-2-yl]-2,3-dimethyl-3,13,20,26-tetrazapentacyclo[18.5.2.0^ {5,14}.0^{7,12}.0^ {23,27}]heptacosa-1(26), 5(14),6,8,10,12,21,23(27), 24-nonaen-4-one] — 9.7-fold lower, 13 nM
- CO[C@@H]1CCN(C(=O)c2cc(F)c3c(c2)nc(-c2cc4ccc5nc4n2CCCCCc2nc4ccccc4cc2C(=O)N(C)[C@@H]5C)n3C2CC2)C[C@@H]1N [Example 833, (2~{R})-21-[5-[(3~{S},4~ {R})-3-amino-4-methoxy-piperidine-1-carbonyl]-1-cyclopropyl-7-fluoro-benzimidazol-2-yl]-2,3-dimethyl-3,13,20,26-tetrazapentacyclo[18.5.2.0^ {5,14).0^{7,12}.0^ {23,27}]heptacosa-1(26),5(14),6,8,10,12, 21,23(27),24-nonaen-4-one] — 2.1-fold lower, 61 nM
- C[C@@H]1[C@H](N)CCCN1C(=O)c1cc(F)c2c(c1)nc(-c1cc3ccc4nc3n1CC(F)(F)CCC[C@@H]1C[C@H]1C(=O)N[C@@H]4C)n2[C@H]1C[C@@H]1F [Example 835, (2~{R},5~{R},7~{R})-14-[5-[(2~{R},3~{R})-3-amino-2-methyl-piperidine-1-carbonyl]-7-fluoro-1-[(1~{S},2~{S})-2-fluorocyclopropyl]benzimidazol-2-yl]-11,11-difluoro-2-methyl-3,13,19-triazatetracyclo[11.5.2.0^ {5,7}.0^{16,20}] icosa-1(19),14,16(20), 17-tetraen-4-one] — 7.9-fold lower, 16 nM
- CO[C@@H]1CCN(C(=O)c2cc(F)c3c(c2)nc(-c2cc4ccc5nc4n2CCCCCc2ccnc(C(F)(F)F)c2C(=O)N[C@@H]5C)n3C2CC2)C[C@@H]1N [Example 836, (2~{R})-17-[5-[(3~{S}, 4~{R})-3-amino-4-methoxy-piperidine-1-carbonyl]-1-cyclopropyl-7-fluoro-benzimidazol-2-yl]-2-methyl-6-(trifluoromethyl)-3,7,16,22-tetrazatetracyclo[14.5.2.0^ {5,10}.0^{19,23}] tricosa-1(22),5(10), 6,8,17,19(23),20-heptaen-4-one] — 3.9-fold lower, 32 nM
- CO[C@@H]1CCN(C(=O)c2cc(F)c3c(c2)nc(-c2cc4ccc5nc4n2CC(F)(F)CCC[C@@H]2C[C@H]2C(=O)N[C@@H]5C)n3[C@@H]2C[C@H]2F)C[C@@H]1N [Example 837, (2~{R},5~{R},7~{R})-14-[5-[(3~{S},4~{R})-3-amino-4-methoxy-piperidine-1-carbonyl]-7-fluoro-1-[(1~{R},2~{R})-2-fluorocyclopropyl]benzimidazol-2-yl]-11,11-difluoro-2-methyl-3,13,19-triazatetracyclo [11.5.2.0^{5,7}.0^{16,20}] icosa-1(19),14,16(20), 17-tetraen-4-one] — 4.2-fold lower, 30 nM
- C[C@@H]1[C@H](N)CCCN1C(=O)c1cc(F)c2c(c1)nc(-c1cc3ccc4nc3n1CCCCCc1nc(C(F)(F)F)ccc1C(=O)N[C@@H]4C)n2C1CC1 [Example 838, (2~{R})-17-[5-[(2~{R}, 3~{R})-3-amino-2-methyl-piperidine-1-carbonyl]-1-cyclopropyl-7-fluoro-benzimidazol-2-yl]-2-methyl-8-(trifluoromethyl)-3,9,16,22-tetrazatetracyclo[14.5.2.0^ {5,10).0^{19,23}] tricosa-1(22),5(10), 6,8,17,19(23),20-heptaen-4-one] — 2.6-fold lower, 49 nM
- C[C@H]1NC(=O)c2nc3ccccc3nc2CCCCCn2c(-c3nc4cc(C(=O)N5C[C@H](N)[C@@H]6CC[C@H]5C6)cc(F)c4n3C3CC3)cc3ccc1nc32 [Example 839, (2~{R})-21-[5-[(1~ {S},4~{R},5~{R})-4-amino-2-azabicyclo[3.2.1]octane-2-carbonyl]-1-cyclopropyl-7-fluoro-benzimidazol-2-yl]-2-methyl-3,6,13,20,26-pentazapentacyclo[18.5.2.0^ {5,14}.0^{7,12}.0^ {23,27}]heptacosa-1(26),5(14), 6,8,10,12,21,23(27),24-nonaen-4-one] — 9.7-fold lower, 13 nM
- C[C@H]1NC(=O)c2ccc(Cl)nc2CCCCCn2c(-c3nc4cc(C(=O)N5C[C@H](N)[C@@H]6CC[C@H]5C6)cc(F)c4n3[C@H]3C[C@@H]3F)cc3ccc1nc32 [Example 840, (2~{R})-17-[5-[(1~{S), 4~{R},5~{R})-4-amino-2-azabicyclo[3.2.1]octane-2-carbonyl]-7-fluoro-1-[(1~ {S},2~{S})-2-fluorocyclopropyl]benzimidazol-2-yl]-8-chloro-2-methyl-3,9,16,22-tetrazatetracyclo[14.5.2.0^ {5,10).0^{19,23}]tricosa-1(22), 5(10),6,8,17,19(23),20-heptaen-4-one] — 2.1-fold lower, 61 nM
- C[C@H]1NC(=O)c2c(ccc3cccnc23)CCCCCn2c(-c3nc4cc(C(=O)N5C[C@H](N)[C@@H]6CC[C@H]5C6)cc(F)c4n3C3CC3)cc3ccc1nc32 [Example 841, (2~{R})-21-[5-[(1~{S},4~{R}, 5~{R})-4-amino-2-azabicyclo [3.2.1]octane-2-carbonyl]-1-cyclopropyl-7-fluoro-benzimidazol-2-yl]-2-methyl-3,7,20,26-tetrazapentacyclo [18.5.2.0^{5,14}.0^{6,1 1}.0^{23,27}]heptacosa-1(26),5(14),6(11),7,9,12,21, 23(27),24-nonaen-4-one] — 7.4-fold lower, 17 nM
- COc1cc(C(=O)N2C[C@H](N)[C@@H]3CC[C@H]2C3)cc2nc(-c3cc4ccc5nc4n3CCCCCc3nc(C(F)(F)F)ccc3C(=O)N[C@@H]5C)n(C)c12 [Example 842, (2~{R})-17-[5-[(1~{S},4~{R},5~ {R})-4-amino-2-azabicyclo[3.2.1]octane-2-carbonyl]-7-methoxy-1-methyl-benzimidazol-2-yl]-2-methyl-8-(trifluoromethyl)-3,9,16,22-tetrazatetracyclo[14.5.2.0^ {5,10}.0^{19,23}]tricosa-1(22), 5(10),6,8,17,19(23),20-heptaen-4-one] — 2.6-fold lower, 49 nM
- C[C@H]1NC(=O)c2ccc(C(F)F)nc2CCCCCn2c(-c3nc4cc(C(=O)N5C[C@H](N)[C@@H]6CC[C@H]5C6)cc(F)c4n3C3CC3)cc3ccc1nc32 [Example 843, (2~{R})-17-[5-[(1~{S},4~ {R},5~{R})-4-amino-2-azabicyclo[3.2.1]octane-2-carbonyl]-1-cyclopropyl-7-fluoro-benzimidazol-2-yl]-8-(difluoromethyl)-2-methyl-3,9,16,22-tetrazatetracyclo [14.5.2.0^{5,10}.0^{19,23}] tricosa-1(22),5(10),6,8,17, 19(23),20-heptaen-4-one] — 7-fold lower, 18 nM
- C[C@H]1NC(=O)c2cnc(C(F)(F)F)cc2CCCCCn2c(-c3nc4cc(C(=O)N5C[C@H](N)[C@@H]6CC[C@H]5C6)cc(F)c4n3C3CC3)cc3ccc1nc32 [Example 844, (2~{R})-17-[5-[(1~{S},4~ {R},5~{R})-4-amino-2-azabicyclo [3.2.1]octane-2-carbonyl]-1-cyclopropyl-7-fluoro-benzimidazol-2-yl]-2-methyl-8-(trifluoromethyl)-3,7,16,22-tetrazatetracyclo[14.5.2.0^ {5,10).0^{19,23}]tricosa-1(22),5(10),6,8,17,19(23),20-heptaen-4-one] — 3.6-fold lower, 35 nM
- COc1cc(C(=O)N2C[C@H](N)[C@@H]3CC[C@H]2C3)cc2nc(-c3cc4ccc5nc4n3CCCCCc3nccc(Cl)c3C(=O)N[C@@H]5C)n(C)c12 [Example 845, (2~{R})-17-[5-[(1~{S},4~{R}, 5~{R})-4-amino-2-azabicyclo [3.2.1]octane-2-carbonyl]-7-methoxy-1-methyl-benzimidazol-2-yl]-6-chloro-2-methyl-3,9,16,22-tetrazatetracyclo[14.5.2.0^ {5,10}.0^{19,23}]tricosa-1(22),5(10),6,8,17,19(23),20-heptaen-4-one] — 7.9-fold lower, 16 nM
